Reference: patent US20240024403A1, “Compositions and Methods for Managing Weight” (Unigen, Inc., priority 2012, published 2024)

Assay: High fat diet induced obesity (DIO) mouse model
Format: in vivo, C57CL/6J mice
Conditions: for Total Weight / Total Body Weight: in g (unit assumed); for Feed intake: orlistat 40 mg/kg/day oral
Procedure: C57CL/6J mice aged 4-6 weeks (Korea Research Institute of Bioscience & Biotechnology, Ohchang, Korea) were housed in Polycarbonate cages (five mice per cage) in a room with a 12 hr:12 hr light-dark cycle and an ambient temperature of 24° C. All the mice were fed a commercial chow diet for 1 week after arrival in the animal facility. Mice were then divided into normal and obesity groups and fed with normal diet (ND) and high fat diets (HFD) respectively. The HFD group was divided into multiple treatment groups: a high fat diet vehicle group (HFD), an orlistat (purchased as OTC drug Alli®) positive control treatment group (ORI, 40 mg/kg of animal weight, 2 times/day) and optionally a sibutramine positive control treatment group (10 mg/kg, 1 time/day). The HFD contained 340 g of fat/kg of HFD (310 g lard plus 30 g soybean oil; Harlan Laboratories, USA). The HFD was formulated to provide 60% of the total energy generated by the diet from fat by replacing carbohydrate energy with lard and soybean oil, whereas the normal diet (ND) group was fed a diet providing only 18% of the total diet energy from fat(Harlan Laboratories, USA).
Body weight was measured once each week and feed intake was measured twice per week. At the end of the experimental period, following a 12 hr. fasting period, the animals were anesthetized with ether, and blood was drawn from the abdominal vein. Liver and kidney and adipose tissues (epididymal, retroperitoneal, perirenal adipose tissues) were removed from each animal, rinsed with physiological saline, and weighed. Serum concentrations of glucose, total cholesterol, triglycerides, and LDL-cholesterol were determined using automatic analyzer (INTEGRA 400, Roche, Germany). Statistical significance of test results was measured using the Student's t-test.

[1] = DIO mice, week 2, G1 = 1,100 mg/kg orally twice a day
[2] = DIO mice, week 2, G1 = 1,200 mg/kg orally twice a day
[3] = DIO mice, week 3, G1 = 800 mg/kg orally twice a day
[4] = DIO mice, week 3, G1 = 1,100 mg/kg orally twice a day
[5] = DIO mice, week 3, G1 = 1,200 mg/kg orally twice a day
[6] = DIO mice, week 4, G1 = 800 mg/kg orally twice a day
[7] = DIO mice, week 4, G1 = 1,100 mg/kg orally twice a day
[8] = DIO mice, week 4, G1 = 1,200 mg/kg orally twice a day
[9] = DIO mice, week 5, G1 = 800 mg/kg orally twice a day
[10] = DIO mice, week 5, G1 = 1,100 mg/kg orally twice a day
[11] = DIO mice, week 5, G1 = 1,200 mg/kg orally twice a day
[12] = DIO mice, week 6, G1 = 800 mg/kg orally twice a day
[13] = DIO mice, week 6, G1 = 1,100 mg/kg orally twice a day
[14] = DIO mice, week 6, G1 = 1,200 mg/kg orally twice a day
[15] = DIO mice, week 7, G1 = 800 mg/kg orally twice a day
[16] = DIO mice, week 7, G1 = 1,100 mg/kg orally twice a day
[17] = DIO mice, week 7, G1 = 1,200 mg/kg orally twice a day
[18] = DIO mice, week 8, G1 = 800 mg/kg orally twice a day
[19] = DIO mice, week 8, G1 = 1,100 mg/kg orally twice a day
[20] = DIO mice, week 8, G1 = 1,200 mg/kg orally twice a day
[21] = Liver pathology, DIO mice, G1 = 800 mg/kg orally twice a day
[22] = Liver pathology, DIO mice, G1 = 1,100 mg/kg orally twice a day
[23] = ORI 40 mg/kg, DIO mice, end of study
[24] = ORI 40 mg/kg, mice fed a high fat diet (Table 44)
[25] = ORI 40 mg/kg, mice fed high fat diet
[26] = ORI, DIO mice, blood at end of study
[27] = blood at end of study, orlistat 40 mg/kg oral
[28] = liver pathology score, DIO mice, combination (10:1) 1100 mg/kg twice a day
[29] = liver pathology score, mice fed a high fat diet, Mutamba fractions 250 mg/kg oral 2 times per day, mean
[30] = liver pathology score, mice fed a high fat diet, Mutamba fractions 250 mg/kg oral 2 times per day, mean (table printed twice)

CCCCCCCCCCC[C@@H](C[C@@H]1OC(=O)[C@H]1CCCCCC)OC(=O)[C@H](CC(C)C)NC=O [ORI, orlistat]
Total Weight (DIO mice, week 2, G1 = 800 mg/kg orally twice a day): 34.08 | Weight Gain [1]: −6.14 | Total Weight [1]: 34.08 | Weight Gain [2]: −6.14 | Total Body Weight [2]: 34.08 | Total Weight (DIO mice, week 2, ORI group, mean, Table 134): 31.91 | Weight Gain (DIO mice, week 2, ORI group, mean, Table 135): −6.69 | Total Body Weight (DIO mice, week 2, ORI group, mean, Table 145): 34.08 | Weight Gain (DIO mice, week 2, ORI group, mean, Table 146): −6.14 | Weight Gain [3]: −4.91 | Total Weight [3]: 35.32 | Weight Gain [4]: −4.91 | Total Weight [4]: 35.32 | Weight Gain [5]: −4.91 | Total Body Weight [5]: 35.32 | Total Weight (DIO mice, week 3, ORI group, mean, Table 134): 33.34 | Weight Gain (DIO mice, week 3, ORI group, mean, Table 135): −5.27 | Total Body Weight (DIO mice, week 3, ORI group, mean, Table 145): 35.32 | Weight Gain (DIO mice, week 3, ORI group, mean, Table 146): −4.91 | Weight Gain [6]: −3.84 | Total Weight [6]: 36.38 | Weight Gain [7]: −3.84 | Total Weight [7]: 36.38 | Weight Gain [8]: −3.84 | Total Body Weight [8]: 36.38 | Total Weight (DIO mice, week 4, ORI group, mean, Table 134): 35.14 | Weight Gain (DIO mice, week 4, ORI group, mean, Table 135): −3.47 | Total Body Weight (DIO mice, week 4, ORI group, mean, Table 145): 36.38 | Weight Gain (DIO mice, week 4, ORI group, mean, Table 146): −3.84 | Weight Gain [9]: −2.57 | Total Weight [9]: 37.65 | Weight Gain [10]: −2.57 | Total Weight [10]: 37.65 | Weight Gain [11]: −2.57 | Total Body Weight [11]: 37.65 | Total Weight (DIO mice, week 5, ORI group, mean, Table 134): 36.27 | Weight Gain (DIO mice, week 5, ORI group, mean, Table 135): −2.34 | Total Body Weight (DIO mice, week 5, ORI group, mean, Table 145): 37.65 | Weight Gain (DIO mice, week 5, ORI group, mean, Table 146): −2.57 | Weight Gain [12]: −1.47 | Total Weight [12]: 38.75 | Weight Gain [13]: −1.47 | Total Weight [13]: 38.75 | Weight Gain [14]: −1.47 | Total Body Weight [14]: 38.75 | Total Weight (DIO mice, week 6, ORI group, mean, Table 134): 37.52 | Weight Gain (DIO mice, week 6, ORI group, mean, Table 135): −1.08 | Total Body Weight (DIO mice, week 6, ORI group, mean, Table 145): 38.75 | Weight Gain (DIO mice, week 6, ORI group, mean, Table 146): −1.47 | Weight Gain [15]: −0.26 | Total Weight [15]: 39.96 | Weight Gain [16]: −0.26 | Total Weight [16]: 39.96 | Weight Gain [17]: −0.26 | Total Body Weight [17]: 39.96 | Total Weight (DIO mice, week 7, ORI group, mean, Table 134): 38.62 | Weight Gain (DIO mice, week 7, ORI group, mean, Table 135): 0.02 | Total Body Weight (DIO mice, week 7, ORI group, mean, Table 145): 39.96 | Weight Gain (DIO mice, week 7, ORI group, mean, Table 146): −0.26 | Weight Gain [18]: −0.23 | Total Weight [18]: 39.99 | Weight Gain [19]: −0.23 | Total Weight [19]: 39.99 | Weight Gain [20]: −0.23 | Total Body Weight [20]: 39.99 | Total Body Weight (DIO mice, week 8, ORI group, mean, Table 145): 39.99 | Weight Gain (DIO mice, week 8, ORI group, mean, Table 146): −0.23 | Hepatocellular ballooning (0-2) [21]: 0.33 | Lobular Inflammation (0-3) [21]: 1.50 | NASH (sum) [21]: 2.17 | Steatosis (0-3) [21]: 0.33 | Hepatocellular ballooning (0-2) [22]: 0.33 | Lobular Inflammation (0-3) [22]: 1.50 | NSAH (sum) [22]: 2.17 | Steatosis (0-3) [22]: 0.33 | Organ Weight: Epididymal Fat [23]: 1.92 g | Organ Weight: Liver [23]: 1.12 g | Organ Weight: Perirenal Fat [23]: 0.33 g | Organ Weight: Retroperitoneal Fat [23]: 0.47 g | Organ Weight: Total Fat [23]: 2.73 g | Average Body Weight Gain [24]: -0.031 g/day | Average Food Intake [24]: 2.711 g/day | Food Efficiency Ratio (FER) [24]: −0.011 | Average Body Weight Gain [25]: -0.031 g/day | Average Food Intake [25]: 2.711 g/day | Food Efficiency Ratio (FER) (ORI 40 mg/kg, mice fed high fat diet, body weight gain (g/day)/food intake (g/day)): −0.011 | Total Body Weight (ORI 40 mg/kg, week 0): 42.76 | Total Body Weight (ORI 40 mg/kg, week 1): 38.73 | Total Body Weight (ORI 40 mg/kg, week 2): 35.09 | Total Body Weight (ORI 40 mg/kg, week 3): 35.66 | Total Body Weight (ORI 40 mg/kg, week 4): 37.28 | Total Body Weight (ORI 40 mg/kg, week 5): 38.57 | Total Body Weight (ORI 40 mg/kg, week 6): 40.03 | Total Body Weight (ORI 40 mg/kg, week 7): 40.91 | F-Glu (fasting glucose) [26]: 222.43 mg/dL | LDL-C (LDL-cholesterol) [26]: 4.27 mg/dL | T-Chol (total cholesterol) [26]: 134.57 mg/dL | ALT [27]: 21.83 U/L | AST [27]: 65.65 U/L | LDL-C [27]: 4.03 mg/dL | T-chol [27]: 137.33 mg/dL | TG [27]: 27.83 mg/dL | Feed intake (day 4): 2.23 g/day | Feed intake (day 7): 2.56 g/day | Feed intake (day 11): 3.01 g/day | Feed intake (day 14): 3.18 g/day | Feed intake (day 21): 3.27 g/day | Feed intake (day 25): 3.27 g/day | Feed intake (day 28): 3.44 g/day | Feed intake (day 32): 3.27 g/day | Feed intake (day 35): 3.35 g/day | Feed intake (day 39): 3.17 g/day | Feed intake (day 42): 3.43 g/day | Feed intake (day 46): 3.18 g/day | Feed intake (day 49): 3.54 g/day | Feed intake (day 53): 3.17 g/day | weight decrease (end of the 8 week treatment): 0.23 gram | NASH (sum) (liver pathology score sum, DIO mice, combination (10:1) 1100 mg/kg twice a day): 3.40 | Hepatocellular ballooning (0-2) [28]: 1.00 | Lobular Inflammation (0-3) [28]: 1.40 | Steatosis (0-3) [28]: 1.00 | Hepatocellular ballooning (0-2) [29]: 0.80 | Lobular Inflammation (0-3) [29]: 1.60 | Steatosis (0-3) [29]: 1.00 | Hepatocellular ballooning (0-2) [30]: 0.80 | Lobular Inflammation (0-3) [30]: 1.60 | Steatosis (0-3) [30]: 1.00 | NSAH (sum) (liver pathology, sum of scores, mice fed a high fat diet, Mutamba fractions 250 mg/kg oral 2 times per day, mean): 3.40 | NSAH (sum) (liver pathology, sum of scores, mice fed a high fat diet, Mutamba fractions 250 mg/kg oral 2 times per day, mean (table printed twice)): 3.40
